PMC7177833, “2-Aminopyridine Analogs Inhibit Both Enzymes of the Glyoxylate Shunt in Pseudomonas aeruginosa” (International Journal of Molecular Sciences, 2020)
Where “and” joins values, the source holds several entries; their conditions need not be identical. Identical values can stand only once. Like-named read-outs stand apart in the source and are kept apart here.

What was measured:
H27 cells = assay: CellTiter-Glo luminescent cell viability assay (ATP), H27; type: cell-based, human; conditions: IC50 cytotoxicity/IC50 P. aeruginosa growth inhibition in M9 acetate
Method: (§1) The number of viable cells based on ATP quantification was determined using the CellTiter-Glo® luminescent cell viability assay (Promega, Madison, WI, USA, lot no. 0000200446). Briefly, cells were seeded into white, flat-bottomed, sterile 96-well plates (PerkinElmer, Beaconsfield, UK) and incubated for 24 h. For A-375 cells, we used 10,000 cells/well, and for H27 cells, we used 7500 cells/well. Test compounds were diluted in assay medium (Glutamax DMEM with 5% FBS (Gibco)) and added to the plates in two-fold dilutions starting at 100 µM. Negative controls (0.5% DMSO) and positive controls (camptothecin, 1.6 µM for the A-375 cells and 50 µM for the H27 cells) were also included, and the plates were incubated for an additional 48 h (95% humidity, 5% CO2 at 37 °C). After incubation, the cells were washed with PBS. To each well, we then added 50 µL of assay medium plus 50 µL of CellTiter-Glo® reagent. The samples were then shaken for 2 min at 100 rpm at 25 °C, followed by a further 10 min at 25 °C to stabilize the luminescence signal. Luminescence was measured using a VarioSkan LUX multimode microplate reader (Thermo Fisher Scientific, Vantaa, Finland).

[1] = as above; type: cell-based, human; conditions: human; H27 cells, 48 h, ATP luminescence; read-out: Cytotoxicity IC50 H27
Method: as §1

U937 cells = assay: CytoTox 96 LDH release cytotoxicity assay, U937; type: cell-based, human; conditions: IC50 cytotoxicity/IC50 P. aeruginosa growth inhibition in M9 acetate
Method: (§2) The CytoTox 96® nonradioactive cytotoxicity assay (Promega, Madison, WI, USA) was performed to determine the number of cells affected by necrosis measuring LDH release. A U937 cell suspension (5 × 10^5 cells/mL) was prepared, and 99.5 µL of this suspension were added to the wells of clear, sterile, 96-well, U-bottomed plates (Greiner, Dungannon, UK). The test compounds (0.5 µL of a 200 × concentrated stock) or 0.5% DMSO (control) were added to each well, and the plates were shaken for 1 min at 100 rpm, followed by 3.5 h at 37 °C with 5% CO2. At this point, CytoTox 96® 10× lysis solution was added to the wells reserved for total lysis. These samples represented the LDH released following complete cell lysis. After 30 min, 50 µL of supernatant from each test well and total lysis well was transferred to new 96-well plates (Thermo Fisher Scientific, Bishop’s Stortford, UK). Prethawed CytoTox 96® buffer was mixed with the CytoTox 96® substrate, and 50 µL were added into each well. The plates were incubated for 10 min in darkness at 25 °C. CytoTox 96® stop buffer (50 µL) was added, and the plates were incubated for a further 15 min. LDH release was quantified by measuring A492 nm in a CLARIOstar® multimode microplate reader (BMG Labtech, Aylesbury, UK).

[2] = CytoTox 96 LDH release cytotoxicity assay, U937; type: cell-based, human; conditions: human; U937 cells, LDH release
Method: as §2

[3] = CellTiter-Glo luminescent cell viability assay (ATP), A-375; type: cell-based, human; conditions: human; A-375 cells, 48 h, ATP luminescence; read-out: Cytotoxicity IC50 A-375
Method: as §1

A-375 cells = assay: as above; type: cell-based, human; conditions: IC50 cytotoxicity/IC50 P. aeruginosa growth inhibition in M9 acetate
Method: as §1

P. aeruginosa = system: P. aeruginosa; design: method as in Fahnoe et al. [13]; conditions: ref Fahnoe et al. [13], cited from earlier work
MSPa [4] = biological target: T1, MSPa (Pseudomonas aeruginosa, UniProt Q9I636); assay: Isothermal titration calorimetry, MSPa
T1 sequence (Q9I636 whole entry): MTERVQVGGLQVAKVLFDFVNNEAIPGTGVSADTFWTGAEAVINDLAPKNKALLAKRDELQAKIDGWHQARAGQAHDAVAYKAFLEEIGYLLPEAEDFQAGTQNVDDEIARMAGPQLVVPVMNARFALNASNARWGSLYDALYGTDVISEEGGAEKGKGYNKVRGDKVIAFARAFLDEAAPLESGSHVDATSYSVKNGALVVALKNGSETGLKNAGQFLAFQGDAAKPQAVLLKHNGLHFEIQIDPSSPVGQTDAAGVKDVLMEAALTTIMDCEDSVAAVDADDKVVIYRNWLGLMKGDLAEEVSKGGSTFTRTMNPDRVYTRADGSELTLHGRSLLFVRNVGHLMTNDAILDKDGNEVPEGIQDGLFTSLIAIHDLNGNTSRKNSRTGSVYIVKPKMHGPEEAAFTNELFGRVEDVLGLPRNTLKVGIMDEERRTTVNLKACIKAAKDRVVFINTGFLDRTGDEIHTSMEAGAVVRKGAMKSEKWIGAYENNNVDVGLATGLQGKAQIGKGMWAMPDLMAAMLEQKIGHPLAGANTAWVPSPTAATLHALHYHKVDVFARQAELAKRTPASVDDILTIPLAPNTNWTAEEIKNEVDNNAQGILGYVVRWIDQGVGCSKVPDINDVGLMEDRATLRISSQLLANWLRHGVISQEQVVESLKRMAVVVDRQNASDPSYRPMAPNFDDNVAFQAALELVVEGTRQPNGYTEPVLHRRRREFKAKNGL
Method: Protein samples were dialyzed (2 × 1 L) in a D-tube dialyzer (Merck, Watford, UK) for 3 h in 25 mM Tris-HCl, 100 mM NaCl, and 0.1 mM TCEP (pH 7.5). […] The syringe and the cell both contained a final concentration of 0.1% DMSO. The injection parameters for MSPa were: Reference power 15 µcal/sec, initial injection of 3 µL (3.6 sec per injection) with subsequent injections of 10 µL (12 sec per injection). Injections were spaced by 150 sec with a filter period of 2 sec. The injection parameters for ICLPa were: Reference power 15 µcal/sec, initial injection of 3 µL (3.6 sec per injection) with subsequent injections of 8 µL (10 sec per injection). Injections were spaced by 170 sec with a filter period of 2 sec. Data were analyzed in NITPIC (NITPIC, Bethesda, MD, USA) [31] for baseline calculations and then fit for thermodynamic parameters using the OneSite model in Origin 7.0 software (Origin Software Solutions, Bristol, UK). Each titration was carried out in duplicate.

ICLPa = biological target: T2, ICLPa (Pseudomonas aeruginosa, UniProt Q9I0K4); assay: Kinetic mode of action on ICLPa; type: biochemical; design: made in house; conditions: isocitrate titrated; uncompetitive model, GraphPad Prism
T2 sequence (Q9I0K4 1-531): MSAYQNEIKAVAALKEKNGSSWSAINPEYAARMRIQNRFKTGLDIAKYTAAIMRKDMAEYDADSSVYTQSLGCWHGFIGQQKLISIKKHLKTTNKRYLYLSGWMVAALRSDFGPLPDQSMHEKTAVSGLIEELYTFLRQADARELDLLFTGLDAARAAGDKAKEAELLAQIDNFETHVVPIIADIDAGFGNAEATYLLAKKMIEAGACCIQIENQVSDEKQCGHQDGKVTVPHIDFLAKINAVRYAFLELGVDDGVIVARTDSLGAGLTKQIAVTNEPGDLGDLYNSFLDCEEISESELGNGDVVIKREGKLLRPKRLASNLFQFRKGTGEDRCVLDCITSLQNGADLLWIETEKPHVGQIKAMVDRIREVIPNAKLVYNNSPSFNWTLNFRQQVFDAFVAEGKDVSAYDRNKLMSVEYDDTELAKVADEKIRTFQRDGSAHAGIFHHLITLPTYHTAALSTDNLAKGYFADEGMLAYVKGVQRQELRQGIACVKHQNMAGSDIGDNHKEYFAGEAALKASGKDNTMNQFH
Method: (§3) The enzymatic activity of purified ICLPa and MSPa was assayed essentially as previously described. Compounds were added to the reaction mixtures (minus substrates) and incubated for 5 min at 37 °C. The enzyme concentration in the reaction mixtures was 170 nM for ICL and 25 nM for MS (based on the concentration of the monomer in each case). […] The reactions were initiated by the addition of pH-adjusted substrates, and the initial rates were recorded as A324 nm (for ICLPa) and A412 nm (for MSPa) using a Biospectrometer (Eppendorf, Stevenage, UK). Substrate turnover was calculated from the molar extinction coefficient of the assay products: Glyoxylate-phenylhydrazone (16,800/M/cm) for ICLPa and 2-nitro-5-thiobenzoic acid (14,150/M/cm) for MSPa.
(§4) The mode of action of SB002 on MSPa and ICLPa was determined by titrating the respective substrates of each enzyme in the presence of three fixed concentrations of SB002 (selected to lie around the measured IC50 value) and measuring the reaction rates as outlined in Section 4.3. Double-reciprocal plots and best-fit inhibition models (GraphPad Prism v. 7.04) were used to assess the mode of inhibition. Inhibition constants were calculated using GraphPad Prism v. 7.04 (GraphPad Software, Inc., La Jolla, CA, USA). Each data point represents the mean ± SD for three independent replicates.

MSPa [5] = biological target: T1, MSPa; assay: Kinetic mode of action on MSPa; type: biochemical; design: made in house
Method: as §3, §4

[6] = ITC, 25 °C, reverse titration, MSPa

CC(C)(C)OC(=O)/N=C(\NC(=O)OC(C)(C)C)Nc1cc(C#N)ccn1 [SB023]
Therapeutic index H27 (H27 cells): 23.27
IC50 at 48 h [1]: 205 µM
Therapeutic index U937 (U937 cells): 364 and 364.37
IC50 at 3.5 h [2]: 3220 µM
IC50 at 48 h [3]: 106 µM
Therapeutic index A-375 (A-375 cells): 11.95

CC(C)(C)OC(=O)/N=C(\NC(=O)OC(C)(C)C)Nc1cc(Cl)ccn1 [SB002]
Therapeutic index H27 (H27 cells): 93 and 93.73
IC50 at 48 h [1]: 98.4 µM
MIC (P. aeruginosa; conversion of 8 μg/mL): 21.6 µM
MIC (P. aeruginosa): 8 µg/mL
Kd (MSPa [4]): 0.0286 ± 0.0016 µM
Ka (MSPa [4]; [6]): 3.56e+07 ± 1.86e+06 M
ΔG (MSPa [4]; [6]): −10.31 ± 1.79×10^−3 kcal/mol
ΔH (MSPa [4]; [6]): −0.47 ± 1.79×10^−3 kcal/mol
−TΔS (MSPa [4]; [6]): -9.84 kcal/mol
n (binding sites) (MSPa [4]; ITC, per monomeric unit of MSPa): 0.35 and 0.35 ± 8.41 × 10^−4
Ki’ (inhibition constant for binding to the enzyme-substrate complex), ICLPa (ICLPa): 21.3 µM
Ki (MSPa [5]): 4.5 µM
Mode of inhibition of MSPa with respect to acetyl-CoA (MSPa [5]; acetyl-CoA varied, saturating (200 µM) glyoxylate): competitive mode of inhibition
Ki’ (binding to the ES complex), MSPa (MSPa [5]; glyoxylate varied, 200 µM acetyl-CoA): 3.9 µM
Mode of inhibition of MSPa with respect to glyoxylate (MSPa [5]; glyoxylate varied, saturating (200 µM) acetyl-CoA): uncompetitive inhibition at the lower inhibitor concentrations tested, and noncompetitive inhibition at the higher concentration of inhibitor
Therapeutic index U937 (U937 cells): 17 and 17.31
IC50 at 3.5 h [2]: 18.2 µM
